# Where two headings read alike, the source gives them in different places.
# Key:
# Type in all cases: cell-based
# [1] = system: platelets in rat whole blood; test: Platelet aggregation response in whole blood (impedance aggregometer), rat blood
# Protocol: (§1) The platelet aggregation effect of the liposomes in the whole blood of various mammals was evaluated using a CHRONO-LOG Dual Chamber Whole Blood Aggregometer Model 560, according to the following protocol:
# (§2) Venous blood was collected using 3.8% sodium citrate in a Vacutainer. Dilution ratio is 1 to 9 (citrate solution: blood). The effect of D and L etherlipid and liiposmes containing them on aggregation of platelets from rats, dogs, monkeys and humans was tested.
# (§3) Immediately following collection the blood was mix by gentle inversion (maintain at room temperature). Prewarm 500 ul saline in disposable plastic cuvettes. Add 500 ul whole blood or PRP. Add disposable siliconized mini stir bar. Warm diluted blood 5 min at 37° C. prior to testing. Add test samples to aggregation chambers and insert impedance probes.
# (§4) Platelet aggregation response was determined by increased resistance using an impedance electrode in a platelet suspension. Resistance measurements were taken 6-8 minutes after addition of the test article to 1 ml whole blood or platelet rich plasma (PRP).
# [2] = system: platelets in dog whole blood; test: Platelet aggregation response in whole blood (impedance aggregometer), dog blood
# Protocol: as §1, §2, §3, §4
# [3] = system: platelets in human whole blood; test: Platelet aggregation response in whole blood (impedance aggregometer), human blood
# Protocol: as §1, §2, §3, §4
# [4] = system: L1210 murine lymphocytic leukemia; test: In vitro growth inhibition, SRB assay, L1210; conditions: read-out: In vitro growth inhibition GI50 (± sd), L1210
# Protocol: (§5) The anti-tumor activities of the D and L etherlipid were evaluated against A549, a human non-small cell lung carcinoma cell line; MCF 7, a human breast carcinoma line and MCF 7/adr, multi-drug resistant human breast carcinoma; were obtained from the DCT Tumor Repository (NCI-Frederick Cancer Research Facility, Frederick, Md.). U-937, a human histiocytic lymphoma cell line, was obtained from the American Type Culture Collection. Stock cultures of these human cell lines were maintained in RPMI 1640 tissue culture media (Life Technologies, Gaithersburg, Md.) supplemented with 10% heat inactivated fetal bovine serum (Life Technologies) and 10 mM HEPES (Life Technologies). Cultures were maintained in exponential growth in a humidified incubator with 5% CO2 and were passaged twice weekly. L1210 and L1210/vmdr, murine lymphocytic leukemias, (Yale University School of Medicine). L1210/vmdr, a selected line of L1210, was transfected with a plasmid (pHaMDR1/A) containing the mdr 1 gene.
# (§6) The detailed methodology of the SRB assay is described elsewhere (2,3). […] The bound stain was solubilized with 100 ul of 10 mM Tris buffer (Sigma) and the optical density was read spectrophotometrically at 490 nm (Microplate Reader Model 3550-UV, Biorad, Hercules, Calif.). […] Percent growth was calculated as follows: (T−T0)/(C−T0)×100 where (T)=mean optical density of treated wells at a given drug concentration, (T0)=mean optical density of time zero wells, and (C)=mean optical density of control wells, or if T<T0 where cell killing has occurred, then percent cell death can be calculated as follows: (T−T0)/(T0)×100. By varying drug concentration, dose response curves were generated and the GI50 values were calculated. The GI50 values for each experiment were calculated using data obtained from three duplicate wells on two separate plates. The mean GI50 values and standard deviations were then calculated from the GI50's from each independent experiment.
# Lewis Lung = test: In vitro growth inhibition, SRB assay, Lewis Lung; conditions: 72 hrs treatment, read-out: In vitro growth inhibition GI50 (± sd), Lewis Lung
# Protocol: (§7) The detailed methodology of the SRB assay is described elsewhere (2,3). Briefly, 96-well microtiter plates were inoculated with 100 ul of the above cell lines at optimal cell densities, 3500-15,000 cells/well, in medium (RPMI 1640 with L-glutamine (Mediatech, Herndon, Va.)) supplemented with 10% fetal bovine serum (Life Technologies) for all cell lines. The plates were then incubated for 24 hours at 37° C., 100% humidity, and 5% CO2. After the 24 hour incubation, 100 μl of medium was added to the designated time zero plates, then the plates containing adherent cell lines were acid fixed with 50 ul of 50% trichloroacetic acid (wt/vol) (Sigma, St. Louis, Mo.) and refrigerated at 4° C. for 1 hour (the suspension cell lines were acid fixed with 80% trichloroacetic acid). The supernatant was discarded and the plates were rinsed 6 times with water and air dried. Then the test compound was added (100 ul aliquots) to the remaining (non-fixed) plates at 2 times the predetermined highest concentration and serially diluted across the plates. Growth control wells received an additional 100 ul of medium. […] The bound stain was solubilized with 100 ul of 10 mM Tris buffer (Sigma) and the optical density was read spectrophotometrically at 490 nm (Microplate Reader Model 3550-UV, Biorad, Hercules, Calif.). […] Percent growth was calculated as follows: (T−T0)/(C−T0)×100 where (T)=mean optical density of treated wells at a given drug concentration, (T0)=mean optical density of time zero wells, and (C)=mean optical density of control wells, or if T<T0 where cell killing has occurred, then percent cell death can be calculated as follows: (T−T0)/(T0)×100. By varying drug concentration, dose response curves were generated and the GI50 values were calculated. The GI50 values for each experiment were calculated using data obtained from three duplicate wells on two separate plates. The mean GI50 values and standard deviations were then calculated from the GI50's from each independent experiment.
# [5] = system: L1210/vmdr murine lymphocytic leukemia (mdr 1 transfected); test: In vitro growth inhibition, SRB assay, L1210/vmdr; conditions: for GI50: 72 hrs treatment, read-out: In vitro growth inhibition GI50 (± sd), L1210/vmdr
# Protocol: as §5
# as §7, with “dried.” for “dried. Then the test compound was added (100 ul aliquots) to the remaining (non-fixed) plates at 2 times the predetermined highest concentration and serially diluted across the plates. Growth control wells received an additional 100 ul of medium.”
# [6] = system: MCF 7, a human breast carcinoma line; test: In vitro growth inhibition, SRB assay, MCF7; conditions: 72 hrs treatment, read-out: In vitro growth inhibition GI50 (± sd), MCF7
# Protocol: as §5, §6
# [7] = system: MCF 7/adr, multi-drug resistant human breast carcinoma; test: In vitro growth inhibition, SRB assay, MCF7/adr; conditions: 72 hrs treatment, read-out: In vitro growth inhibition GI50 (± sd), MCF7/adr
# Protocol: as §5, §6
# [8] = system: A549, a human non-small cell lung carcinoma cell line; test: In vitro growth inhibition, Sulforhodamine B (SRB) assay, A549; conditions: read-out: In vitro growth inhibition GI50 (± sd), A549
# Protocol: as §5, §6
# [9] = system: U-937, a human histiocytic lymphoma cell line; test: In vitro growth inhibition, SRB assay, U937; conditions: read-out: In vitro growth inhibition GI50 (± sd), U937
# Protocol: as §5, §6
# [10] = system: PAF binding sites on dog blood platelets; test: Platelet aggregation response in dog whole blood with and without CV-6209; conditions: PAF alone, concentration 0.05 μM
# Protocol: as §1, §3, §4
# To further investigate the platelet aggregation response triggered by the L-ether lipid in dog whole blood, the effect of a compound (CV-6209) that binds PAF binding sites on dog blood platelets was studied.
# [11] = Mus musculus, L1210, 72 hrs treatment
# [12] = Homo sapiens, A549, 72 hrs treatment
# [13] = Homo sapiens, U-937, 72 hrs treatment
molecule,measurement,setting,value
Nc1ncnc2c1ncn2[C@@H]1O[C@H](COP(=O)(O)OP(=O)(O)O)[C@@H](O)[C@H]1O [ADP],Rat Blood Response,[1]; concentration 20 μM,2.0 Ω
same,Dog Blood Response,[2]; concentration 20 μM,4.0 Ω
same,Human Blood Response,[3]; concentration 20 μM,6.3 Ω
"CCCCCCCCCCCCCCCCCCOC[C@@H](COP(=O)([O-])OCC[N+](C)(C)C)OC [D-EL, 3-O-octadecyl-2-O-methyl-sn-glycero-1-phosphocholine]",GI50,[4]; [11],3.6 ± 1.59 µM
same,GI50,Lewis Lung; Lewis lung carcinoma,25.4 ± 0.95 µM
same,activity against L1210/vmdr compared to L-EL and the racemate,[5]; 72 hrs,slight but statistically significant greater activity
same,GI50,[5]; Mus musculus,4.87 ± 0.77 µM
same,GI50,"[6]; Homo sapiens, MCF7a",14.6 ± 5.92 µM
same,GI50,"[7]; Homo sapiens, NCI/ADR-RES",25.1 ± 1.69 µM
same,GI50,[8]; [12],7.96 ± 0.57 µM
same,GI50,[9]; [13],1.41 ± 0.29 µM
collagen,Rat Blood Response,[1]; concentration 20 μg/μL,34.1 Ω
same,Dog Blood Response,[2]; concentration 20 μg/μL,12 Ω
same,Human Blood Response,[3]; concentration 20,36 Ω
CCCCCCCCCCCCCCCCCCOCC(COP(=O)([O-])OCC[N+](C)(C)C)OC (racemic) [rac-EL],GI50,[4]; 72 hrs treatment,4.18 ± 1.38 µM
same,GI50,Lewis Lung,27.1 ± 1.98 µM
same,GI50,[5],6.09 ± 2.15 µM
same,GI50,[6],15.9 ± 6.41 µM
same,GI50,[7],27.8 ± 0.3 µM
same,GI50,[8]; 72 hrs treatment,8.36 ± 0.67 µM
same,GI50,[9]; 72 hrs treatment,1.5 ± 0.22 µM
"CCCCCCCCCCCCCCCCCCOC[C@H](COP(=O)([O-])OCC[N+](C)(C)C)OC [L-EL, 1-O-octadecyl-2-O-methyl-sn-glycero-3-phosphocholine]",GI50,[4]; [11],4.77 ± 0.41 µM
same,GI50,Lewis Lung; Lewis lung carcinoma,29.1 ± 2.05 µM
same,GI50,[5]; Mus musculus,8.77 ± 1.47 µM
same,GI50,"[6]; Homo sapiens, MCF7a",18.6 ± 4.57 µM
same,GI50,"[7]; Homo sapiens, NCI/ADR-RES",27.9 ± 2.1 µM
same,GI50,[8]; [12],9.07 ± 0.39 µM
same,GI50,[9]; [13],1.53 ± 0.42 µM
1-O-2-acetyl-sn-glycero-3-phosphocholine [PAF],Dog Blood Response,[10],23.5 Ω
same,Rat Blood Response,[1]; concentration 0.05 μM,0 Ω
same,Dog Blood Response,[2]; concentration 0.05 μM,14.8 Ω
same,Human Blood Response,[3]; concentration 0.05 μM,6.0 Ω
